Measurements taken from PMC7211193, “Evaluation of absorption, distribution, metabolism, and excretion of [^14C]-rucaparib, a poly(ADP-ribose) polymerase inhibitor, in patients with advanced solid tumors” (Investigational New Drugs, 2019).

Experiment: Mass balance: recovery of radioactivity in urine and feces
Format: in vivo, human
Description: Six patients received a single oral dose of [^14C]-rucaparib 600 mg (approximately 5.18 MBq or 140 μCi) on day 1 after fasting for 10 h and were confined at the study site for the collection of blood samples and excreta for a maximum of 12 days.
For the purposes of the mass balance study and metabolite profiling, urine and fecal samples were collected during predetermined intervals. Urine was collected at time 0 (predose), 0–6, 6–12, and 12–24 h, and daily per 24-h interval from day 2 to day 12. Urine was collected in 3-L polyethylene containers and stored at 4 °C for the duration of the collection period. After each collection period, urine samples were mixed thoroughly, weighed, portioned into aliquots in polypropylene tubes, and then frozen at or below −70 °C until metabolite profiling and TRA analyses by LSC. Feces were collected daily in 24-h intervals from predose to day 12. Feces collections were kept at or below −20 °C. Sample pretreatment involved diluting and homogenizing the feces by adding water (1–2 weight equivalents). An Ultra-Turrax mixer (IKA, Staufen im Breisgau, Germany) was used to homogenize the samples before aliquoting. Separate aliquots of fecal homogenate were transferred to polypropylene tubes. Aliquots for radioactivity measurement by LSC were stored at or below −20 °C until analysis, whereas aliquots for metabolite profiling were stored at −70 °C until analysis.
Patients 01, 05, and 09 were confined to the study site for sample collections for 12 days, but Patients 03, 06, and 08 were discharged earlier per protocol because cumulative recovery of radioactivity from these patients exceeded 90% of the administered dose or the radioactivity in urine and feces was <1% of the administered dose over a 24-h period on 2 consecutive days.
TRA analysis was performed on a Liquid Scintillation Counter Tri-Carb Model 3100TR (PerkinElmer). Aliquots of blood (300 μL), plasma (250 μL), and urine (1 mL) were transferred to scintillation vials. Blood samples were incubated at ≥60 °C with SOLVABLE (1 mL). After cooling to room temperature, EDTA (0.1 M, 100 μL) and hydrogen peroxide (225 μL) were added to dissolve blood cells, reduce foaming, and decrease color intensity. Finally, after incubation at ≥45 °C and ≥60 °C, Ultima Gold (≥5-fold) was added, and the samples were analyzed with LSC. For urine samples, Ultima Gold (≥5-fold) was added, and the samples were analyzed with LSC.
Fecal samples were processed further and combusted before LSC analyses. Aliquots (≈500 mg) of the fecal homogenates were dried in an oven (50 °C). Combustaid (100 μL) was added to the dry homogenates and the sample was combusted in a Sample Oxidizer Model 307 (PerkinElmer). Carbo-Sorb E (7 mL) was used as an absorber agent for the [^14C]-carbon dioxide that was generated during combustion. At the end of the combustion cycle, the absorber was mixed with 13 mL of the scintillant PermaFluor E. After combustion, TRA of fecal aliquots was determined by LSC as described for urine samples.
For the vomit sample collected from Patient 01 (clear vomitus) the urine method was used, and for Patient 05 (not clear vomitus) the feces method was used.

[1] = within 12 days post dose, mean ± SD, N = 6

CNCc1ccc(-c2[nH]c3cc(F)cc4c3c2CCNC4=O)cc1 [Rucaparib, rucaparib]
Cumulative recovery of the actual dose, Patient 01 (Patient 01, dose corrected for loss by vomiting): 86.5% | Dose recovery in feces, patient who lost 0.03% of dose by vomiting (Patient 05): 62.2% | Dose recovery in urine, patient who lost 0.03% of dose by vomiting (Patient 05): 10.9% | Cumulative dose recovery, patient who lost 0.03% of dose by vomiting (lowest recovery) (Patient 05, urine plus feces): 73.1% | bioavailability (human, urine and feces, po, 600 mg, radioactivity in urine plus radioactivity recovered as metabolites in feces, read-out: Oral bioavailability suggested by the current study): ≥ 21% | Time by which 90% of the observed urinary recovery was achieved (post dose): ≤ 120 h | Time within which 90% of the observed fecal recovery was found (post dose): ≤ 168 h | Recovery of administered radioactive dose in feces [1]: 71.9% | Recovery of administered radioactive dose in urine [1]: 17.4% | Total recovery of administered radioactive dose in excreta [1]: 89.3%
